Experiments:
sigma-1 site = sigma-1 site (Homo sapiens, UniProt Q99720); details: (+) isomers of benzomorphan opiates; Hellewell and Bowen (1990); cited from earlier work
[1] = test system: NMDA-induced toxicity and seizures; details: in vivo models; Pontecorvo et al. (1991); cited from earlier work
[2] = test system: SHR (spontaneous hypertensive) rats, stroke by MCA occlusion; test: Rotating pole test after MCA occlusion; type: in vivo, rat; details: 0.03-10 mg/kg s.c. or p.o. from two days after MCAO for 2-8 weeks; saline control
Source text: (§1) Male 3 months old SHR (spontaneous hypertensive) rats are used for induction of stroke by MCA occlusion. This is the preferred strain since most stroke patients are hypertensive. The animals are anesthetized with Methohexital and a small craniectomy is made above the zygmotic arch to expose the middle cerebral artery, which is occluded with a 10-0 monofilament nylon thread distal to the origin of the striatal branches. The rats are not intubated and no catheters are inserted. Following MCA occlusion a large and reproducible infarct is obtained, leading to a robust sensorimotor deficit. The animals are kept on a 6 hr light/18 h dark cycle with free access to food and water. At two days after the MCAO the rats are treated with the compound I, II, III, IV, V, VI, VII, VIII, or IX (0.03-10 mg/kg) s.c. or p.o. and a control group is given saline for 2-8 weeks. At 2, 4, 6 and 8 weeks animals are tested in the rotating pole or cylinder test
A score of 6-0 is given for each direction: • 6, the animal crosses the pole with no foot slips; • 5, the animal crosses the pole with a few foot slips; • 4, the animal crosses the pole, slipping 50% of the footsteps; • 3, the animal crosses the pole with more than 50% foot slips; • 2, the animal walks a bit and then rotates around the pole; • 1, the animal rotates around the pole without crossing it; • 0, the animal falls off the pole. Cylinder Test for Asymmetric Use of Forelimb Use in Spontaneous Rearing

[3] = test system: SHR (spontaneous hypertensive) rats, stroke by MCA occlusion; test: Cylinder test for asymmetric forelimb use after MCA occlusion; type: in vivo, rat; details: 0.03-10 mg/kg s.c. or p.o. from two days after MCAO for 2-8 weeks; saline control
Source text: as §1
The cylinder test (modified from Schallert and Tillerson (Innovative models of CNS disease: from molecule to therapy. Clifton, N.J., Humana, 1999) is used to quantify the forelimb use for rearing on the cylinder wall. The rats are monitored as they move freely in a 20-cm-wide clear glass cylinder. Contacts made by each forepaw with the cylinder wall while rearing are scored by a blinded observer. A total of 20 contacts are recorded for each animal, and the number of impaired (left), both, and non-impaired forelimb contacts as percentage of total contacts is calculated. Baseline for rats is achieved by measuring the contacts made by each forepaw before MCAO.

[4] = test system: rat primary neuronal cultures; details: Nakazawa et al. (1998); cited from earlier work
sigma-1 receptor = sigma-1 receptor (Homo sapiens, UniProt Q99720); details: literature reports; cited from earlier work
Chain of sigma-1 receptor (Q99720 whole entry): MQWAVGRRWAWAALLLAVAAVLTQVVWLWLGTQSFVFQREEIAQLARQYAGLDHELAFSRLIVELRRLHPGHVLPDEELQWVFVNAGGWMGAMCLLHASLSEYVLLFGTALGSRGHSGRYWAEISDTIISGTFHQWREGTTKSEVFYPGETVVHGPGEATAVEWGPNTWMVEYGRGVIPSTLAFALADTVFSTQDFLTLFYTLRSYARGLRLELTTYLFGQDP

[5] = test system: cultured rat retinal neurons; details: Senda et al. (1998); cited from earlier work
[6] = hydrohalide salts, in particular the hydrochloride salt; WO 99/24436; cited from earlier work
[7] = test system: hypertensive rats exposed to permanent middle artery occlusion (MCAO), a model of ischemic stroke; test: Morris water maze after permanent MCAO; type: in vivo, rat; details: for Latency to Find Hidden Platform, TRIAL 3 / Latency to Find Hidden Platform, TRIAL 4 / Latency to Find Hidden Platform, TRIAL 5 / Latency to Find Hidden Platform, TRIAL 1 / Latency to Find Hidden Platform, TRIAL 2 / Path Length to Find Hidden Platform, TRIAL 1 / Path Length to Find Hidden Platform, TRIAL 2 / Path Length to Find Hidden Platform, TRIAL 3 / Path Length to Find Hidden Platform, TRIAL 4 / Path Length to Find Hidden Platform, TRIAL 5: 14 days from day 2 after MCAO, tested day 35; for Latency to Find Hidden Platform, TRIAL 1 / Latency to Find Hidden Platform, TRIAL 2 / Path Length to Find Hidden Platform, TRIAL 1 / Path Length to Find Hidden Platform, TRIAL 2 / Path Length to Find Hidden Platform, TRIAL 3 / Path Length to Find Hidden Platform, TRIAL 4 / Path Length to Find Hidden Platform, TRIAL 5: value (SEM)
Procedure: The Morris water maze was used to assess functional recovery, in particular recovery in a cognitive skill, in hypertensive rats after exposure to permanent middle artery occlusion (MCAO), a model of ischemic stroke.
Forty three hypertensive rats were exposed to permanent middle artery occlusion (MCAO). Starting at two days after occlusion and continuing for 14 days, Siramesine was administered p.o. in doses of 0.3 mg/kg (14 rats) or 1.0 mg/kg (14 rats). In a control group (15 rats), vehicle only was administered. On day 35 after permanent MCAO, the rats were assessed for their performance in the Morris Water Maze Test.
In the test, the rats were given a series of 6 trials, 1 hour apart in a large dark-colored tank (200 cm in ) filled with clear water at a temperature of 22.0±1.5° C. A 12×12-cm submerged platform (2 mm below the water surface) was placed in the northwest quadrant of the pool. The release point was always the southern end of the pool. The rats were lowered into the pool facing the wall, and then released. Each rat was given a maximum of 90 seconds to find the submerged platform. […] After remaining on the platform for 20 seconds, the rat was removed and placed in a dry cage. One hour later, each rat was given a second trial, using the same release position and platform position, to measure the rat's retention of the platform location. The process was repeated a total of 5 times for each rat, each trial 1 hour apart. The swim paths of the rats were recorded with a computer tracking system and the latency and the length of swim path to find the hidden platform were analyzed.

sigma-2 receptor = sigma-2 receptor (Homo sapiens, UniProt Q5BJF2); details: Perregaard et al. (1995); cited from earlier work
Chain of sigma-2 receptor (Q5BJF2 whole entry, species assumed): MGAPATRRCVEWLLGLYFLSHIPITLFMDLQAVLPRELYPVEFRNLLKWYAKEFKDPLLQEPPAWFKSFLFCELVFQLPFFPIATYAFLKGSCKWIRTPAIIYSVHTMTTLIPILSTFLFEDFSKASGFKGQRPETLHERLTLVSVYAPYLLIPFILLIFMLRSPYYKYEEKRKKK

ischemia in gerbils = details: cited from earlier work
[8] = test system: NMDA-type of glutamate receptors; details: cited from earlier work

Chain of sigma-1 site (Q99720 whole entry): as the sequence (Q99720 whole entry) above

For `CC(C)=CCN1CCC2(C)c3cc(O)ccc3CC1C2C` (single isomer, unassigned; (+)) [(+)pentazocine], the “affinity for the sigma-1 site compared to the sigma-2 site” value (sigma-1 site) is listed as “nearly two orders of magnitude higher affinity for the sigma-1 site”.

In the case of `OC(CCCN1CCN(c2ncc(F)cn2)CC1)c1ccc(F)cc1` (stereo not drawn) [BMY-14802], the “protective effects against NMDA-induced toxicity and seizures” value (“protective effects” below) [1] is given as “protective effects against NMDA-induced toxicity and seizures”.

In the case of `O=C(OCCN1CCOCC1)C1(c2ccccc2)CCCCC1` [III], the “performance in rotating pole test versus control” value [2] is reported as “perform better than the group 1 control animals” and the “performance in cylinder test versus control” value [3] is reported as “perform better than the group 1 control animals”.

For `O=C(NC1CCN(Cc2ccccc2)CC1)c1ccc(I)cc1` [II], the “performance in rotating pole test versus control” value [2] was “perform better than the group 1 control animals” and the “performance in cylinder test versus control” value [3] was “perform better than the group 1 control animals”.

For `COc1ccc(CCN2CCN(CCCc3ccccc3)CC2)cc1OC` [IV], the “performance in rotating pole test versus control” value [2] was “perform better than the group 1 control animals” and the “performance in cylinder test versus control” value [3] was “perform better than the group 1 control animals”.

For `COc1ccc(CN2CCN(Cc3ccccc3)CC2)c(O)c1OC` [IX], the “performance in rotating pole test versus control” value [2] was “perform better than the group 1 control animals” and the “performance in cylinder test versus control” value [3] was “perform better than the group 1 control animals”.

For `COc1ccc(CCN2CCN(CCCc3ccccc3)CC2)cc1OC` [SA4503, 1-(3,4-dimethoxyphenethyl)-4-(3-phenylpropyl) piperazine], the “suppression of hypoxia/hypoglycemia-induced neurotoxicity” value [4] is listed as “significantly suppress hypoxia/hypoglycemia-induced neurotoxicity”, the “sigma-1 receptor functional activity” value (sigma-1 receptor) is listed as “selective sigma-1 agonist” and the “activity against glutamate neurotoxicity” value [5] is listed as “active against glutamate neurotoxicity”.

For `Fc1ccc(-n2cc(CCCCN3CCC4(CC3)OCc3ccccc34)c3ccccc32)cc1` [Siramesine, 1′-[4-[1-(4-fluorophenyl)-1H-indol-3-yl]-1-butyl] spiro [isobenzofuran-1(3H),4′-piperidine]], the bioavailability [6] is given as “good bioavailability”, the “performance in rotating pole test versus control” value [2] is given as “perform better than the group 1 control animals” and the “Latency to Find Hidden Platform, TRIAL 3” value ([7]; 0.3 mg/kg p.o.) is given as 47.0 s. For the same compound, the “Latency to Find Hidden Platform, TRIAL 4” value ([7]; 0.3 mg/kg p.o.) was 33.1 s, the “Latency to Find Hidden Platform, TRIAL 5” value ([7]; 0.3 mg/kg p.o.) was 15.66 s and the “Latency to Find Hidden Platform, TRIAL 1” value ([7]; 0.3 mg/kg p.o.) was 72.4 (7.3) SECONDS. For the same compound, the “Latency to Find Hidden Platform, TRIAL 2” value ([7]; 0.3 mg/kg p.o.) was 43.6 (7.9) SECONDS, the “Path Length to Find Hidden Platform, TRIAL 1” value ([7]; 0.3 mg/kg p.o.) was 14.5 (1.8) METERS and the “Path Length to Find Hidden Platform, TRIAL 2” value ([7]; 0.3 mg/kg p.o.) was 12.4 (2.3) METERS. For the same compound, the “Path Length to Find Hidden Platform, TRIAL 3” value ([7]; 0.3 mg/kg p.o.) was 14.4 (2.7) METERS, the “Path Length to Find Hidden Platform, TRIAL 4” value ([7]; 0.3 mg/kg p.o.) was 10.4 (2.4) METERS and the “Path Length to Find Hidden Platform, TRIAL 5” value ([7]; 0.3 mg/kg p.o.) was 4.3 (0.6) METERS. For the same compound, the “Latency to Find Hidden Platform, TRIAL 3” value ([7]; 1.0 mg/kg p.o.) was 59.99 s, the “Latency to Find Hidden Platform, TRIAL 4” value ([7]; 1.0 mg/kg p.o.) was 34.3 s and the “Latency to Find Hidden Platform, TRIAL 5” value ([7]; 1.0 mg/kg p.o.) was 19.8 s. For the same compound, the “Latency to Find Hidden Platform, TRIAL 1” value ([7]; 1.0 mg/kg p.o.) was 62.4 (7.7) SECONDS, the “Latency to Find Hidden Platform, TRIAL 2” value ([7]; 1.0 mg/kg p.o.) was 62.2 (8.5) SECONDS and the “Path Length to Find Hidden Platform, TRIAL 1” value ([7]; 1.0 mg/kg p.o.) was 11.1 (1.4) METERS. For the same compound, the “Path Length to Find Hidden Platform, TRIAL 2” value ([7]; 1.0 mg/kg p.o.) was 16.2 (2.2) METERS, the “Path Length to Find Hidden Platform, TRIAL 3” value ([7]; 1.0 mg/kg p.o.) was 16.65 (2.2) METERS and the “Path Length to Find Hidden Platform, TRIAL 4” value ([7]; 1.0 mg/kg p.o.) was 9.7 (1.9) METERS. The “Path Length to Find Hidden Platform, TRIAL 5” value ([7]; 1.0 mg/kg p.o.) was 5.29 (1.5) METERS, the “functional recovery, in particular recovery in a cognitive skill” value ([7]; administered daily to rats from 2 days after the stroke for 14 days) was “facilitates functional recovery” and the “performance in cylinder test versus control” value [3] was “perform better than the group 1 control animals”. The “sigma-1 receptor functional activity” value (sigma-1 receptor) was “displays activity towards the sigma 1 receptor” and the “sigma-2 receptor functional activity” value (sigma-2 receptor) was “selective sigma-2 agonist”.

With `CN(CCc1ccc(Cl)c(Cl)c1)C1CCCCC1N1CCCC1` (stereo not drawn) [VIII] the “performance in rotating pole test versus control” value [2] was “perform better than the group 1 control animals” and the “performance in cylinder test versus control” value [3] was “perform better than the group 1 control animals”.

With `COc1cccc2c1CCC(=O)N2CCCN1CCN(c2cccc(Cl)c2)CC1` [VII] the “performance in rotating pole test versus control” value [2] was “perform better than the group 1 control animals” and the “performance in cylinder test versus control” value [3] was “perform better than the group 1 control animals”.

In the case of `CCC(C/C=C/c1ccccc1)(c1ccccc1)N(C)CC1CC1` (stereo not drawn) [VI], the “performance in rotating pole test versus control” value [2] is reported as “perform better than the group 1 control animals” and the “performance in cylinder test versus control” value [3] is reported as “perform better than the group 1 control animals”.

In the case of `CCN(CC)CCOC(=O)C1(c2ccccc2)CCCC1` [caramiphen], the “protective effects” value [1] is listed as “protective effects against NMDA-induced toxicity and seizures”.

With `COCCCC/C(=N\OCCN)c1ccc(C(F)(F)F)cc1` [compound I] the “performance in rotating pole test versus control” value [2] was “perform better than the group 1 control animals” and the “performance in cylinder test versus control” value [3] was “perform better than the group 1 control animals”.

In the case of `O=C(CCCN1CCC(O)(c2ccc(Cl)cc2)CC1)c1ccc(F)cc1` [haloperidol], the “protective effects” value [1] is listed as “protective effects against NMDA-induced toxicity and seizures”.

In the case of `OCCN1CCN(CCCN2c3ccccc3C=Cc3ccccc32)CC1` [opipramol], the protection against ischemia (ischemia in gerbils) is given as “protect against ischemia in gerbils” and the “modulation of NMDA-type glutamate receptors” value [8] is given as “modulate the NMDA-type of glutamate receptors”.
